Assay results as given in PubChem BioAssay AID2401 (Southern Research Specialized Biocontainment Screening …, 2010).

Test system: S. Typhimurium GFP reporter counter-screen, fluorescence, 4 h
Assay: nmpC-GFP reporter counter-screen in S. Typhimurium, dose response, counter-screen for PhoP regulon inhibitor project, Salmonella Typhimurium, GFP fluorescence (AID 2401);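 note: S. typhimurium with Mg-insensitive nmpC-GFP reporter grown at 10 µM Mg2+; drop in reporter fluorescence reflects general culture growth inhibition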

Row | Compound | IC50 [µM]
1 | CC[C@H]1OC(=O)[C@H](C)[C@@H](O[C@H]2C[C@@](C)(OC)[C@@H](O)[C@H](C)O2)[C@H](C)[C@@H](O[C@@H]2O[C@H](C)C[C@H](N(C)C)[C@H]2O)[C@](C)(O)C[C@@H](C)[C@@H]2N[C@@H](COCCOC)O[C@H]([C@H]2C)[C@]1(C)O | 25.1
2 | CCOc1cc(/C=N/N=C(N)N)ccc1OCc1ccc(Cl)cc1 | 52.4
3 | CCCCCCCCCCOC(=O)C[N+](C)(C)C/C=C(/C)Cl | 44.9
4 | CCn1cc(C(=O)O)c(=O)c2cc(F)c(N3CCN(C(=S)NC(=O)c4ccc(OC)cc4)CC3)cc21 | 29.4
5 | COC(=O)C1C(O)C(C)C(O)C(C)(O)/C=C\C=C(/C)C(=O)Nc2c(C)c(OC(C)=O)c3c(c2O)C(=O)C(C)=C2OCOC(=C23)/C(C)=C/C(C)(O)C(O)C(C)C1O (stereo not drawn) | 12.6
6 | CN(C)[C@@H]1C(=O)C(C(N)=O)=C(O)[C@@]2(O)C(=O)C3=C(O)c4c(O)cccc4[C@@](C)(O)C3[C@H](O)C12 (stereo partly drawn) | 0.79
7 | Cc1ccnc(NC(c2cccnc2)c2ccc3cccnc3c2O)c1 (stereo not drawn) | 22.3
8 | OC(c1cc(-c2ccc(C(F)(F)F)cc2)nc(C(F)(F)F)c1)C1CCCCN1 (stereo not drawn) | 29.5
9 | CN(C)c1ccc(O)c2c1CC1CC3C(N(C)C)C(=O)C(C(N)=O)=C(O)[C@@]3(O)C(=O)C1=C2O (stereo partly drawn) | 3.97
10 | O=[N+]([O-])c1cc(CN2CCOCC2)c2cccnc2c1O | 27.2
11 | Oc1cccc(/C=N/NC(=S)Nc2cccnc2)c1O | 28.5
12 | CCCCCCCCCC[n+]1cccc2c3ccccc3ccc21 | 23.4
13 | O=c1c(O)cccc2cc(O)c(O)c(O)c12 | 21.9
14 | CCCC(=O)NC(c1ccccc1)c1ccc2cccnc2c1O (stereo not drawn) | 40
15 | CCCC(=O)NC(c1cccs1)c1cc([N+](=O)[O-])c2cccnc2c1O (stereo not drawn) | 25.8
16 | O=C(O)c1cc(O)c2c(c1)[C@@H]([C@H]1c3cc(C(=O)O)cc(O)c3C(=O)c3c(O[C@@H]4O[C@H](CO)[C@@H](O)[C@H](O)[C@H]4O)cccc31)c1cccc(OC3O[C@H](CO)[C@@H](O)[C@H](O)[C@H]3O)c1C2=O (stereo partly drawn) | 83.6
17 | Cc1[nH]n(-c2ccccc2)c(=O)c1C(C[N+](=O)[O-])c1ccc(F)cc1 (stereo not drawn) | 78.8
18 | Nc1nc(N)c(Cc2ccc(Cl)cc2Cl)c(N)n1 | 100
19 | Clc1ccc(CNCc2cccs2)cc1Cl | 76.1

Row | Compound | IC50 [µM]
20 | Clc1ccc(OCCCNCc2ccccc2)c(Br)c1 | 46.4
21 | C=C1c2c(Cl)ccc(O)c2C(O)=C2C(=O)[C@]3(O)C(O)=C(C(N)=O)C(=O)[C@@H](N(C)C)[C@@H]3[C@@H](O)C12 (stereo partly drawn) | 1.28
22 | NC1=NC2(CCCCC2)N=C(Nc2ccc(Br)cc2)N1 | 119
23 | CCCOc1ccc(Br)cc1CSC(=N)N | 134
24 | Cc1conc1NC(c1cccs1)c1ccc2cccnc2c1O (stereo not drawn) | 25.1
25 | CN1CCN(C(c2ccc(C(F)(F)F)cc2)c2cc(Cl)c3cccnc3c2O)CC1 (stereo not drawn) | 21
26 | C#CCOCCOCCOCCNc1nc(N2CCN(C(=O)CCCCCCCCCCNC(=O)[C@H](CCCN=C(N)N)n3cc(C[C@@H](C)CC)nn3)CC2)nc(N2CCN(C(=O)CCCCCCCCCCNC(=O)[C@@H]([C@H](C)CC)n3cc(CCCCCN)nn3)CC2)n1 | 74.9
27 | Cc1nc(N)c(Cc2ccc(Cl)cc2Cl)c(N)n1 | 40.6
28 | CN(C)C1C(=O)C(C(N)=O)=C(O)C2(O)C(=O)C3=C(O)c4c(O)cccc4C(C)(O)C3C(O)C12 (stereo not drawn) | 0.58
29 | CN(C)C1C(=O)C(C(N)=O)=C(O)C2(O)C(=O)C3=C(O)c4c(O)cccc4C(C)(O)C3CC12 (stereo not drawn) | 1.01
30 | O=C(Nc1ccccc1)Nc1ncc([N+](=O)[O-])s1 | 37.1
31 | CCCCCCCCCCOC(=O)Cn1c(COc2ccc(Cl)cc2)[n+](C)c2ccccc21 | 19.5
32 | CS(=O)(=O)c1ccc([C@@H](O)[C@@H](CO)NC(=O)C(Cl)Cl)cc1 | 86.2
33 | COc1cc(/C=C/[N+](=O)[O-])ccc1O | 32.6
34 | O=[N+]([O-])c1ccc(O)c(/C=N/Nc2ccccn2)c1 | 13.9
35 | C=CCNc1ncnc2c1[nH]c1ccccc12 | 118
36 | O=[N+]([O-])/C=C/c1cc2ccccc2[nH]1 | 138
37 | Cc1cccc(Nc2cc(C)c3c(O)cccc3n2)c1C | 38.8
38 | CCCCCNCC(=O)Nc1cccc(C(=O)Nc2cccc(C(F)(F)F)c2)c1 | 83.2
